The values that follow come from patent US11485731B2, “Compounds and methods useful in the treatment of a PRMT5-mediated disorder” (ARGONAUT THERAPEUTICS LIMITED, priority 2017, dated 2022).

Chain of human PRMT5/MEP50 (O14744 whole entry): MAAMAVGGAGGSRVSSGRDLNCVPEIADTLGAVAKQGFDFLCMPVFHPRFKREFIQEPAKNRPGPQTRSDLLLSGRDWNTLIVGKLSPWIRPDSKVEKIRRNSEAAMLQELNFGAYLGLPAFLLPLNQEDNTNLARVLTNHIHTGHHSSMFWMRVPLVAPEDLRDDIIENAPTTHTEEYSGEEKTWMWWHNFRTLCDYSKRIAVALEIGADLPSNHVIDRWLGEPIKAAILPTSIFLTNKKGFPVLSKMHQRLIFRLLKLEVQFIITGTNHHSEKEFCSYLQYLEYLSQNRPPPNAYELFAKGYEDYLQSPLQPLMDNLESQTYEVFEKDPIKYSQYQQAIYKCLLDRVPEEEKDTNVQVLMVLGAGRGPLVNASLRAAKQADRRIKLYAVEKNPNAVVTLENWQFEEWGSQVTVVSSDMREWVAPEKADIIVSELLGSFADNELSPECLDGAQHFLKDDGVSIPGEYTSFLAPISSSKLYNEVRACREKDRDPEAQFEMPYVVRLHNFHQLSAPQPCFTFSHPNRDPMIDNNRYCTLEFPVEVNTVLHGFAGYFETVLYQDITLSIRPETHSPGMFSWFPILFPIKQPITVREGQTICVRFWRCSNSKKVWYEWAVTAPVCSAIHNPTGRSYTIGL
Chain of human PRMT5/MEP50 (Q9BQA1 whole entry partner): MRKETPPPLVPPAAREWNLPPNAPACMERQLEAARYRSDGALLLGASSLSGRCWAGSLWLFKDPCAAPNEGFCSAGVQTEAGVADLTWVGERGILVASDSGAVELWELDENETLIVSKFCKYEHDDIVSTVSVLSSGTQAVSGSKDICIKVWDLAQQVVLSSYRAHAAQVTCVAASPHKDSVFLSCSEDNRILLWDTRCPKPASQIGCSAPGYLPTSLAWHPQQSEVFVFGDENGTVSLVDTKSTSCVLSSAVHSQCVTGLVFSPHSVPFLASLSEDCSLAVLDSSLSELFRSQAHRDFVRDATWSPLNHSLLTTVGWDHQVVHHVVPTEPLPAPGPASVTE

This assay has as its target human PRMT5/MEP50 (Homo sapiens (Human), UniProt O14744). The experiment in a line: PRMT5 chemiluminescent assay. In kind it is biochemical. As to conditions: human PRMT5/MEP50 expressed in HEK293 cells; biotinylated histone peptides; Histone H4 monomethyl R3 antibody; chemiluminescent readout. As to the method: A PRMT5 chemiluminescent assay was used to measure the IC50 activity of PRMT5 of the compounds of Examples 1A to 7 above. Biotinylated histone peptides were synthesized and attached to 384-well plates. Compound serial dilutions were performed and added to the assay plate. Histone H4 monomethyl R3 antibody was obtained from Abcam. A master mix for each well was prepared and human PRMT5/MEP50 (expressed in HEK293 cells) diluted in assay buffer to a concentration of 5 ng/μL. The reaction was incubated and slowly rotated for 60 minutes at the point of PRMT5/MEP50 addition. The supernatant from the wells was removed and blocking buffer was added to each well and rotated for 10 minutes. The primary antibody was diluted and added to every well for 60 minutes, before it was removed and the wells washed. The horse raddish peroxidase (HRP)-coupled secondary antibody was diluted and added to each well with an incubation time of 30 minutes. The HRP chemiluminescent substrate was added to every well. The plate was read on a Flourstar Omega BMG Labtech instrument (Ortenberg, Germany) and the analysis of IC50 was performed using the Flourstar Omega BMG Labtech software.
For `O=C(NC[C@H](O)CN1CCc2ccccc2C1)N1CCCS(=O)(=O)C(c2ccccc2)C1` (stereo partly drawn) [Example 1BO, N-((S)-3-(3,4-dihydroisoquinolin-2(1H)-yl)-2-hydroxypropyl)-2-phenyl-1,4-thiazepane-4-carboxamide 1,1-dioxide], the IC50 stood at 1820 nM. In turn, `O=C(OCC(O)CN1CCc2ccccc2C1)N1CC[S+]([O-])CC1` (stereo not shown) [Example 4M, 3-(3,4-dihydroisoquinolin-2(1H)-yl)-2-hydroxypropyl thiomorpholine-4-carboxylate 1-oxide] registered an IC50 of 2220 nM. Regarding `O=C(NC[C@H](O)CN1CCc2ccccc2C1)N1CCCC(c2ccccc2)C1` (stereo partly drawn) [Example 1AG, (S)-N-((S)-3-(3,4-dihydroisoquinolin-2(1H)-yl)-2-hydroxypropyl)-3-phenylpiperidine-1-carboxamide], inhibition was half-maximal at 185 nM (IC50).

`O=C(NC[C@H](O)CN1CCc2ccccc2C1)N1CCC[S+]([O-])CC1` (stereo partly drawn) [Example 1AU, N-((S)-3-(3,4-dihydroisoquinolin-2(1H)-yl)-2-hydroxypropyl)-1,4-thiazepane-4-carboxamide 1-oxide] returned an IC50 of 31200 nM. The result for `O=C(OCC(O)CN1CCc2ccccc2C1)N1CC(C(=O)N2CCOCC2)C1` (stereo not shown) [Example 4T, 3-(3,4-dihydroisoquinolin-2(1H)-yl)-2-hydroxypropyl 3-(morpholine-4-carbonyl)azetidine-1-carboxylate] reads 1860 nM; that for `O=C(NC[C@H](O)CN1CCc2ccccc2C1)N1CCC[C@H](c2ccccc2)C1` [Example 1AO, (R)-N-((S)-3-(3,4-dihydroisoquinolin-2(1H)-yl)-2-hydroxypropyl)-3-phenylpiperidine-1-carboxamide], 9 nM. `O=C(OCC(O)CN1CCc2ccccc2C1)N1CCCC(O)C1` (stereo not shown) [Example 4I, 3-(3,4-dihydroisoquinolin-2(1H)-yl)-2-hydroxypropyl 3-hydroxypiperidine-1-carboxylate]: the IC50 amounted to 8830 nM. Under `O=C(NC[C@H](O)CN1CCc2ccccc2C1)N1CCCC(C2CCSCC2)C1` (stereo partly drawn) [Example 1CA, N-((S)-3-(3,4-dihydroisoquinolin-2(1H)-yl)-2-hydroxypropyl)-3-(tetrahydro-2H-thiopyran-4-yl)piperidine-1-carboxamide] stands 58 nM; under `COC(=O)N1CCCN(C(=O)NC[C@@H](O)CN2CCc3ccccc3C2)CC1` [Example 1BC, Methyl (R)-4-((3-(3,4-dihydroisoquinolin-2(1H)-yl)-2-hydroxypropyl)carbamoyl)-1,4-diazepane-1-carboxylate], 33100 nM; under `CC(=O)N1CCCN(C(=O)NC[C@H](O)CN2CCc3ccccc3C2)CC1` [Example 1AP, (S)-4-acetyl-N-(3-(3,4-dihydroisoquinolin-2(1H)-yl)-2-hydroxypropyl)-1,4-diazepane-1-carboxamide], 484 nM. On to `CC(=O)N1CCCN(C(=O)NCC(O)CN2CCc3ccccc3C2)CC1` (stereo not shown) [Example 1CM, 4-acetyl-N-(3-(3,4-dihydroisoquinolin-2(1H)-yl)-2-hydroxypropyl)-1,4-diazepane-1-carboxamide], for which the IC50 came out at 125 nM. Compound `O=C(NCC(O)CN1CCc2ccccc2C1)N1CCCC(Nc2ccncc2)C1` (stereo not shown) [Example 1P, N-(3-(3,4-dihydroisoquinolin-2(1H)-yl)-2-hydroxypropyl)-3-(pyridin-4-ylamino)piperidine-1-carboxamide] had an IC50 of 221 nM. Against the preceding compound, the IC50 is about 1.8-fold higher. `O=C(NCC(O)CN1CCc2ccccc2C1)N1CCCCC(c2ccccc2)C1` (stereo not shown) [Example 1CO, N-(3-(3,4-dihydroisoquinolin-2(1H)-yl)-2-hydroxypropyl)-3-phenylazepane-1-carboxamide] had an IC50 of 17 nM. `O=C(NCC(O)CN1CCc2ccccc2C1)N1CCN(Cc2ccccc2)CC1` (stereo not shown) [Example 1D, 4-benzyl-N-[2-hydroxy-3-(1,2,3,4-tetrahydroisoquinolin-2-yl)propyl]piperazine-1-carboxamide] displayed an IC50 of 1870 nM. As to `O=C(NC[C@H](O)CN1CCc2ccccc2C1)N1CCCC(c2ccc(F)cc2)C1` (stereo partly drawn) [Example 1BU, N-((S)-3-(3,4-dihydroisoquinolin-2(1H)-yl)-2-hydroxypropyl)-3-(4-fluorophenyl)piperidine-1-carboxamide], the IC50 was found to be 12 nM. In turn, `O=C(NC[C@H](O)CN1CCc2ccccc2C1)N1CCc2ccccc2C1` [Example 1AL, (S)-N-(3-(3,4-dihydroisoquinolin-2(1H)-yl)-2-hydroxypropyl)-3,4-dihydroisoquinoline-2(1H)-carboxamide] showed an IC50 of 30 nM. With `O=C(OCC(O)CN1CCc2ccccc2C1)N1CCC(C(=O)N2CCOCC2)CC1` (stereo not shown) [Example 4B, 3-(3,4-dihydroisoquinolin-2(1H)-yl)-2-hydroxypropyl 4-(morpholine-4-carbonyl)piperidine-1-carboxylate], the IC50 turned out to be 75 nM. The compound `O=C(OC[C@H](O)CN1CCc2ccccc2C1)N1CCC(c2ccccn2)C1` (stereo partly drawn) [Example 4R, (R)-3-(3,4-dihydroisoquinolin-2(1H)-yl)-2-hydroxypropyl 3-(pyridin-2-yl)pyrrolidine-1-carboxylate] returned an IC50 of 81 nM.

For `O=C(NCC(O)CN1CCc2ccccc2C1)N1CCSCC1` (stereo not shown) [Example 1U, N-(3-(3,4-dihydroisoquinolin-2(1H)-yl)-2-hydroxypropyl)thiomorpholine-4-carboxamide], the midpoint of inhibition, the IC50, lay at 896 nM. `O=C(NCC(O)CN1CCc2sccc2C1)N1CCc2ccccc2C1` (stereo not shown) [Example 1AA, N-(3-(6,7-dihydrothieno[3,2-c]pyridin-5(4H)-yl)-2-hydroxypropyl)-3,4-dihydroisoquinoline-2(1H)-carboxamide]: half-maximal inhibition (IC50) required 342 nM. `CN1CCN(C2CCCN(C(=O)NC[C@H](O)CN3CCc4ccccc4C3)C2)CC1` (stereo partly drawn) [Example 1BY, N-((S)-3-(3,4-dihydroisoquinolin-2(1H)-yl)-2-hydroxypropyl)-3-(4-methylpiperazin-1-yl)piperidine-1-carboxamide] showed an IC50 of 2650 nM.

In turn, `O=C(NCC(O)CN1CCc2ccccc2C1)N1CCC(c2ccccc2)C1` (stereo not shown) [Example 1A, N-(3-(3,4-dihydroisoquinolin-2(1H)-yl)-2-hydroxypropyl)-3-phenylpyrrolidine-1-carboxamide] registered an IC50 of 290 nM.

Compound `O=C(NC[C@H](O)CN1CCc2ccccc2C1)N1CCCS(=O)(=O)CC1` [Example 1AV, (S)-N-(3-(3,4-dihydroisoquinolin-2(1H)-yl)-2-hydroxypropyl)-1,4-thiazepane-4-carboxamide 1,1-dioxide] gave an IC50 of 3140 nM. On to `O=C(NC[C@H](O)CN1CCc2ccccc2C1)N1CCC[C@H](c2ccccn2)C1` (single isomer, unassigned) [Example 5F, (S)-N-((S)-3-(3,4-dihydroisoquinolin-2(1H)-yl)-2-hydroxypropyl)-3-(pyridin-2-yl)piperidine-1-carboxamide or (R)-N-((S)-3-(3,4-dihydroisoquinolin-2(1H)-yl)-2-hydroxypropyl)-3-(pyridin-2-yl)piperidine-1-carboxamide], for which the midpoint of inhibition, the IC50, lay at 97 nM. The result for `Cc1cc(C2CCCN(C(=O)NC[C@H](O)CN3CCc4ccccc4C3)C2)ccn1` (stereo partly drawn) [Example 1BT, N-((S)-3-(3,4-dihydroisoquinolin-2(1H)-yl)-2-hydroxypropyl)-3-(2-methylpyridin-4-yl)piperidine-1-carboxamide] reads 127 nM.

For orientation: IC50 means the midpoint of a concentration-inhibition curve. A high value points to weaker potency in that assay.
